Measurements taken from PMC7503767, “Alkoxyamines Designed as Potential Drugs against Plasmodium and Schistosoma Parasites” (Molecules, 2020).
Like-named read-outs stand apart in the source and are kept apart here.

Experiments:
Adult S. mansoni = test: In vitro antischistosomal activity on adult worms; assay type: cell-based, Schistosoma mansoni; conditions: for Mean (±SD) survival time – Adult S. mansoni / Time for the death of 100% worms: 100 µg/mL; for Mean (±SD) survival time – Adult S. mansoni: observation up to 8 h (Table S1); for Time for the death of 100% worms / S. mansoni Mean Survival Time: adult S. mansoni, observation up to 8 h; for S. mansoni Mean Survival Time: single dose 100 µg/mL
Source text: The NMRI strain of Schistosoma mansoni was used for the experimentations. The parasite was maintained on an albino variety of Biomphalaria glabrata from Brazil (intermediate host) and in Golden Hamsters, Mesocricetus auratus (Janvier Labs, Le Genest-Saint-Isle, France). Detailed methods, for mollusk and hamster infections and for parasite recovery, were previously described.
Adult worms were recovered between 42 and 47 days after infection by hepatic perfusion technique. Twenty to fifty adult worms were disposed in 12-well Falcon® plate containing 2 mL of RPMI 1640 (supplemented with L-glutamine and Hepes 25 mM) and stored in an incubator chamber (37 °C; 5% CO2). Drug preparation started with dissolution of the drug in DMSO to give a 100 mg/mL stock solution. The dilution was complemented with Tween 80 and RPMI in order to obtain the following final ratio dilution: RPMI 1640/Tween 80/DMSO, 1000/0.95/3.8, v/v/v. The drug solution was added to Falcon plates that contained adult worms. The S. mansoni cultures were then incubated with each drug at a final concentration of 100 µg/mL. Positive control was carried out with a solution of praziquantel (Merck KGaA, Darmstadt, Germany) at a concentration of 100 µg/mL. Negative control was carried out with the same RPMI 1640/Tween 80/DMSO solution, but without any drug. Each test was performed in duplicate. Every hour, moving worms were counted in order to define the percentage of survivors. Parasites showing no body contractions during a 30 s observation were considered as dead. Observations were extended to 8 h. Mean survival times (± standard deviation) were calculated for each drug using Kaplan–Meier survival analyses.

Vero cells = test: Cytotoxicity assay (MTT); conditions: for IC50: read-out: Cytotoxicity Mean IC50, Vero cell lines, 48 h, MTT; for Selectivity Index: ratio cytotoxicity (Vero)/activity on Plasmodium
Protocol: (§1) Vero cells were cultured in MEM (Dutscher, Brumath, France) supplemented with 10% fetal bovine serum, 1× non-essential amino acids, 100 U/mL, 100 µg/mL penicillin/streptomycin, and 2 mM L-glutamine at 37 °C in a humidified 5% CO2 atmosphere. […] At this time, each well was microscope-examined for detection of possible precipitate formation prior to remove the supernatant by flicking the plate. 100 µL of a 0.5 mg/mL PBS-dissolved MTT tetrazolium (stock solution at 5 mg/mL) was then added to each well [48]. The plates were then incubated for 1 h at 37 °C and 5% CO2 prior to removing the supernatant and adding 100 µL of DMSO. Plates were gently shaken to dissolve formazan crystals resulting from the MTT tetrazolium reduction by living cells and read at 570 nm with BioTek µQuant Microplate Spectrophotometer.

[1] = system: P. falciparum F32-ART5 (artemisinin-resistant strain); test: Standard chemosensitivity assay (SYBR Green I), F32-ART5; assay type: cell-based, Plasmodium falciparum; conditions: ^1 n = 1, ^2 n = 2
Protocol: (§2) F32-ART5, an artemisinin-resistant strain and F32-TEM, an artemisinin-sensitive strain, were obtained from the parental clone F32-Tanzania, respectively under regular drug pressure cycles of increasing artemisinin concentrations for 5 years and without any artemisinin pressure. After these drug pressure cycles allowing selection of the F32-ART5 strain, regular drug pressures were performed to maintain its phenotype. […] Briefly, parasites were cultured in RPMI 1640 (Fisher Scientific, Waltham, Illkirch-Graffenstaden, France) supplemented with 5% type AB human serum (Etablissement français du Sang, Toulouse, France) and adjusted at a parasitemia of 1% and 2% hematocrit with type O human at 37 °C and 5% CO2. Parasite development was daily monitored by Giemsa staining.
(§3) Briefly, for the determination of IC50 values, the chemosensitivity assay was carried out in 96-well culture plates on D-sorbitol ring-stage synchronized parasites and antiplasmodial activities were evaluated using the SYBR Green I method. Drug testing was performed in triplicates in a dose range of 5 to 7 concentrations. […] Parasites were left to proliferate with the given compounds for 48 h at 37 °C and 5% CO2. After this period, pellets were washed 3 times in sterile PBS prior to putting the plates at −20 °C overnight to lyse all red blood cells. The following day, the plates were thawed at room temperature, 100 µL of each well was transferred into a black 96-well plate to which another 100 µL of 2× PBS-diluted SYBR Green I (Sigma-Aldrich) was added and left to incubate for 2 h at room temperature prior to reading the plates on BioTek FL× 800 Microplate Fluorescence Reader (λexcitation = 485 nm, λemission = 528 nm).
(§4) IC50 values were determined using GraphPad Prism by drawing the curve % inhibition vs. [Drug] and using a four-parameter dose–response curve with the following equation: Y=Bottom+ Top−Bottom/1+x^Hill Slope/IC50Hill Slope

[2] = system: P. falciparum chloroquine-resistant strain FcB1-Columbia; test: Antiplasmodial screen at 10 µM and chemosensitivity assay (SYBR Green I), FcB1-Columbia; assay type: cell-based, Plasmodium falciparum
[3] = system: P. falciparum F32-TEM (artemisinin-sensitive strain); test: Standard chemosensitivity assay (SYBR Green I), F32-TEM; assay type: cell-based, Plasmodium falciparum
Protocol: as §2, §3, §4

Cytotoxicity assay (MTT) = conditions: African green monkey
Protocol: as §1

[4] = Homolysis of the NO–C bond measured by EPR
Protocol: Homolysis rate constants kd’ were measured by EPR and estimated using Equation (1) as reported many times in the literature. Further, Ea and kd were estimated using Equation (2). (1) ln([nitroxide]∞−[nitroxide]t/[nitroxide]∞)=−kd·t (2) Ea=−RT ln([…] kd′ )

[5] = 48 h, read-out: P. falciparum Strains Mean IC50, F32-ART5
[6] = FcB1-Columbia strain, read-out: IC50 on P. falciparum
[7] = read-out: P. falciparum Strains Mean IC50, F32-ART5, 48 h
[8] = read-out: P. falciparum Strains Mean IC50, F32-TEM, 48 h, ^1 n = 1, ^2 n = 2
[9] = 48 h, ^1 n = 1, ^2 n = 2, read-out: P. falciparum Strains Mean IC50, F32-TEM

CCOP(=O)(OCC)C(N(OC(C)c1c[nH]cn1)C(C)(C)C)C(C)(C)C (stereo not drawn) [(RR/SS)-1p]
Mean (±SD) survival time – Adult S. mansoni (Adult S. mansoni): 1.0 ± 0.05 h | Time for the death of 100% worms (Adult S. mansoni): 1 h | S. mansoni Mean Survival Time (Adult S. mansoni): 1.0 ± 0.05 h | IC50 (Vero cells): > 100000 nM

CCOP(=O)(OCC)C(N(OC(C)c1ccnc2c1ccc1cccnc12)C(C)(C)C)C(C)(C)C (stereo not drawn) [1K]
Mean (±SD) survival time – Adult S. mansoni (Adult S. mansoni): 1.1 ± 0.04 h | Time for the death of 100% worms (Adult S. mansoni): 2 h | S. mansoni Mean Survival Time (Adult S. mansoni): 1.1 ± 0.0 h | IC50 [1, 5]: 1600 nM | IC50 (Vero cells): 1100 ± 700 nM | IC50 [2, 6]: 1300 ± 300 nM

CCOP(=O)(OCC)C(N(OC(C)c1cc(-c2ccccn2)nc(-c2ccccn2)c1)C(C)(C)C(=O)O)C(C)(C)C (stereo not drawn) [(RR/SS)-4F, 2-((1-([2,2′:6′,2′′-Terpyridin]-4′-yl)ethoxy)(1-(diethoxyphosphoryl)-2,2-dimethylpropyl)amino)-2-methylpropanoic acid]
Mean (±SD) survival time – Adult S. mansoni (Adult S. mansoni): > 8 h | Time for the death of 100% worms (Adult S. mansoni): > 8 h | S. mansoni Mean Survival Time (Adult S. mansoni): > 8 h | IC50 [1, 7]: 4600 nM | Selectivity Index (Vero cells): 2 | IC50 (Vero cells): 8100 nM | IC50 [3, 8]: 4600 nM

CCN(CC)CCCC(C)Nc1ccnc2cc(Cl)ccc12 (stereo not drawn) [Chloroquine, chloroquine, reference compound]
IC50 ([1]; Plasmodium falciparum, F32, 48 h, read-out: P. falciparum Strains Mean IC50, F32-ART5, 48 h): 60 ± 30 nM | IC50 at 48 h (Cytotoxicity assay (MTT)): 190000 ± 56000 nM | IC50 ([2]; Plasmodium falciparum, FCB1, read-out: IC50 on P. falciparum): 160 ± 36 nM | IC50 ([3]; Plasmodium falciparum, F32, 48 h, read-out: P. falciparum Strains Mean IC50, F32-TEM, 48 h, ^1 n = 1, ^2 n = 2): 60 ± 20 nM

CCOP(=O)(OCC)C(N(OC(C)c1cc(-c2ccccn2)nc(-c2ccccn2)c1)C(C)(C)CO)C(C)(C)C (stereo not drawn) [(RR/SS)-2F, Diethyl(1-((1-([2,2′:6′,2′′-terpyridin]-4′-yl)ethoxy)(1-hydroxy-2-methylpropan-2-yl)amino)-2,2-dimethylpropyl)phosphonate]
S. mansoni Mean Survival Time (Adult S. mansoni): 2.5 ± 0.2 h | IC50 [1, 7]: 400 ± 100 nM | activation energy Ea ([4]; MeOH/water 1:1 pH = 7.4): 28.39 kcal/mol | re-estimated homolysis rate constant kd at 120 °C ([4]; MeOH/water 1:1 pH = 7.4): 38.9 10^−3 s^−1 | half-lifetime t1/2 at 37 °C ([4]; MeOH/water 1:1 pH = 7.4 (aqueous medium)): 84 h | homolysis rate constant kd′ ([4]; MeOH/water 1:1 pH = 7.4, 81 °C): 7.1 10^−4s^−1 | activation energy Ea ([4]; t-BuPh): 28.42 kcal/mol | half-lifetime t1/2 at 37 °C ([4]; t-BuPh): 84 h | re-estimated homolysis rate constant kd at 120 °C ([4]; t-BuPh): 38.4 10^−3 s^−1 | homolysis rate constant kd′ ([4]; t-BuPh, 81 °C): 7.0 10^−4s^−1 | Selectivity Index (Vero cells): 1 | IC50 (Vero cells): 700 ± 300 nM | IC50 ([2]; read-out: IC50 on P. falciparum, FcB1-Columbia strain): 200 nM | IC50 [3, 8]: 500 ± 100 nM

CCOP(=O)(OCC)C(N(OC(CN)c1ccccc1)C(C)(C)C)C(C)(C)C (stereo not drawn) [(RS/SR)-1A]
Mean (±SD) survival time – Adult S. mansoni (Adult S. mansoni): 1.0 ± 0.05 h | Time for the death of 100% worms (Adult S. mansoni): 1 h | S. mansoni Mean Survival Time (Adult S. mansoni): 1.0 ± 0.05 h | IC50 (Vero cells; listed as (RS/SR)-1A): 21000 nM

CCOP(=O)(OCC)C(N(OC(C)c1ccc2ccc3cccnc3c2n1)C(C)(C)CO)C(C)(C)C (stereo not drawn) [2J]
Mean (±SD) survival time – Adult S. mansoni (Adult S. mansoni): 1.0 ± 0.0 h | Time for the death of 100% worms (Adult S. mansoni): 1 h | S. mansoni Mean Survival Time (Adult S. mansoni): 1.0 ± 0.0 h | IC50 [1, 5]: 4600 nM | IC50 (Vero cells): 17000 ± 6300 nM | IC50 [2, 6]: 2500 ± 1500 nM | IC50 [3, 9]: 5000 nM

CCOP(=O)(OCC)C(N(OC(C)c1ccc2ccc3cccnc3c2n1)C(C)(C)C)C(C)(C)C (stereo not drawn) [1J]
Mean (±SD) survival time – Adult S. mansoni (Adult S. mansoni): 1.1 ± 0.05 h | Time for the death of 100% worms (Adult S. mansoni): 2 h | S. mansoni Mean Survival Time (Adult S. mansoni): 1.1 ± 0.1 h | IC50 [1, 5]: 2300 nM | IC50 (Vero cells): 6200 ± 1200 nM | IC50 [2, 6]: 3100 ± 1100 nM | IC50 [3, 9]: 2900 nM

CCOP(=O)(OCC)C(N(OC(C)c1cc(-c2ccccn2)nc(-c2ccccn2)c1)C(C)(C)C=O)C(C)(C)C (stereo not drawn) [(RR/SS)-7F, Diethyl(1-((1-([2,2′:6′,2′′-terpyridin]-4′-yl)ethoxy)(2-methyl-1-oxopropan-2-yl)amino)-2,2-dimethylpropyl)phosphonate]
Time for the death of 100% worms (Adult S. mansoni): 3 h | S. mansoni Mean Survival Time (Adult S. mansoni): 2.5 ± 0.1 h | IC50 [1, 7]: 850 nM | Selectivity Index (Vero cells): 1 | IC50 (Vero cells): 1200 ± 1300 nM | IC50 [3, 8]: 940 nM

CCOP(=O)(OCC)C(N(OC(CN)c1ccccc1)C(C)(C)C)C(C)(C)C (stereo not drawn) [(RR/SS)-1A]
IC50 (Vero cells; listed as (RR/SS)-1A): > 100000 nM | IC50 [2, 6]: > 10000 nM

CC(ON1C(C)(C)CCCC1(C)C)c1ccncc1 (stereo not drawn) [9a]
Mean (±SD) survival time – Adult S. mansoni (Adult S. mansoni): 3.0 ± 0.0 h | Time for the death of 100% worms (Adult S. mansoni): 3 h | S. mansoni Mean Survival Time (Adult S. mansoni): 3.0 ± 0.0 h | IC50 [1, 5]: 13000 nM | IC50 (Vero cells): 40000 ± 13000 nM | IC50 [2, 6]: 8000 ± 3000 nM | IC50 [3, 9]: 7500 nM

CCOP(=O)(OCC)C(N(OC(C)c1cc(-c2ccccn2)nc(-c2ccccn2)c1)C(C)(C)CO)C(C)(C)C (stereo not drawn) [2F]
S. mansoni Mean Survival Time (Adult S. mansoni): 2.1 to 2.5 h | Selectivity Index (Vero cells): 1 | IC50 ([2]; Plasmodium falciparum, FCB1, read-out: IC50 on P. falciparum, FcB1-Columbia strain): 200 to 300 nM | IC50 ([3]; Plasmodium falciparum, F32, read-out: IC50 on the F32 strains, F32-TEM and F32-ART5 taken together): 400 to 600 nM
